The results in this text go back to ChEMBL document CHEMBL4699507, “Rhopaladins' analogue (E)-2-aroyl-4-(4-fluorobenzylidene)-5-oxopyrrolidines inhibit proliferation, promote apoptosis and down-regulation of E6/E7 mRNA in cervical cancer” (2020).

For assay [1], the system named is Ca-Ski. The assay can be described thus: Antiproliferative activity against human CaSki cells assessed as inhibition of cell viability incubated for 48 hrs by MTT assay. The format is functional, cell-based. The conditions noted are these: dose microM 3.125-100, time 48.0 hrs.
In assay [2] the test system is Ca-Ski. As to the kind of experiment: Induction of apoptosis in human CaSki cells assessed as early apoptotic cells at 50 uM after 48 hrs by Annexin V-FITC/PI double staining based flow cytometric analysis (Rvb =0.697%). The format is functional.
Assay [3] deals with Ca-Ski. As to the kind of experiment: Induction of apoptosis in human CaSki cells at 50 uM after 48 hrs by Annexin V-FITC/PI double staining based flow cytometric analysis (reference value: 6.25 +/-0.5%). The format is functional.
In assay [4] the test system is Ca-Ski. As to the kind of experiment: Induction of apoptosis in human CaSki cells assessed as viable cells at 50 uM after 48 hrs by Annexin V-FITC/PI double staining based flow cytometric analysis (reference value: 93%). The format is functional. Conditions: read-out: Activity.
Assay [5] can be described thus: Inhibition of Human papillomavirus type 16 derived E7 gene expression in human CaSki cells assessed as fold change in expression at 12.5 uM measured after 48 hrs by RT-qPCR analysis relative to control. The format is functional, Ca-Ski.
Assay [6] in a line: Inhibition of Human papillomavirus type 16 derived E7 gene expression in human CaSki cells assessed as fold change in expression at 25 uM measured after 48 hrs by RT-qPCR analysis relative to control. The format is functional, Ca-Ski.
Assay [7] concerns Ca-Ski. The assay can be described thus: Induction of apoptosis in human CaSki cells assessed as late apoptotic cells at 25 uM after 48 hrs by Annexin V-FITC/PI double staining based flow cytometric analysis (Rvb =5.59%). It counts as functional.
Assay [8] is described as follows: Inhibition of Human papillomavirus type 16 derived E6 gene expression in human CaSki cells assessed as fold change in expression at 25 uM measured after 48 hrs by RT-qPCR analysis relative to control. The format is functional, Ca-Ski.
For assay [9], the system named is Ca-Ski. The assay can be described thus: Induction of apoptosis in human CaSki cells at 12.5 uM after 48 hrs by Annexin V-FITC/PI double staining based flow cytometric analysis (reference value: 6.25 +/-0.5%). The format is functional.
For assay [10], the system named is Ca-Ski. As to the kind of experiment: Induction of apoptosis in human CaSki cells assessed as necrotic cells at 50 uM after 48 hrs by Annexin V-FITC/PI double staining based flow cytometric analysis (Rvb =0.075%). It counts as functional.
The subject of assay [11] is Ca-Ski. As to the kind of experiment: Induction of apoptosis in human CaSki cells at 25 uM after 48 hrs by Annexin V-FITC/PI double staining based flow cytometric analysis (reference value: 6.25 +/-0.5%). The format is functional.
The subject of assay [12] is Ca-Ski. As to the kind of experiment: Induction of apoptosis in human CaSki cells assessed as necrotic cells at 25 uM after 48 hrs by Annexin V-FITC/PI double staining based flow cytometric analysis (Rvb =0.075%). The format is functional.
Assay [13] deals with Ca-Ski. As to the kind of experiment: Induction of apoptosis in human CaSki cells assessed as late apoptotic cells at 12.5 uM after 48 hrs by Annexin V-FITC/PI double staining based flow cytometric analysis (Rvb =5.59%). The format is functional.
Assay [14] has as its system Ca-Ski. The assay can be described thus: Induction of apoptosis in human CaSki cells assessed as late apoptotic cells at 50 uM after 48 hrs by Annexin V-FITC/PI double staining based flow cytometric analysis (Rvb =5.59%). The format is functional.
Assay [15] can be described thus: Inhibition of Human papillomavirus type 16 derived E7 gene expression in human CaSki cells assessed as fold change in expression at 50 uM measured after 48 hrs by RT-qPCR analysis relative to control. It counts as functional, Ca-Ski.
Assay [16] relates to Ca-Ski. As to the kind of experiment: Induction of apoptosis in human CaSki cells after 48 hrs by Annexin V-FITC/PI double staining based flow cytometric analysis. Conditions: dose microM 12.5-50, time 48.0 hrs. The format is functional, cell-based.
Assay [17] relates to Ca-Ski. The assay can be described thus: Antiproliferative activity against human CaSki cells assessed as reduction in cell viability at 3.125-100 uM by MTT assay. The format is functional, cell-based. Conditions: dose microM 3.125-100, time hrs 24-72, TDE = time-dependent effect.
Assay [18] concerns Ca-Ski. The assay can be described thus: Induction of apoptosis in human CaSki cells assessed as early apoptotic cells at 25 uM after 48 hrs by Annexin V-FITC/PI double staining based flow cytometric analysis (Rvb =0.697%). It counts as functional.
Assay [19] concerns Ca-Ski. As to the kind of experiment: Induction of apoptosis in human CaSki cells assessed as viable cells at 25 uM after 48 hrs by Annexin V-FITC/PI double staining based flow cytometric analysis (reference value: 93%). It counts as functional. The conditions noted are these: read-out: Activity.
Assay [20] has as its system Ca-Ski. As to the kind of experiment: Induction of apoptosis in human CaSki cells assessed as early apoptotic cells at 12.5 uM after 48 hrs by Annexin V-FITC/PI double staining based flow cytometric analysis (Rvb =0.697%). The format is functional.
For assay [21], the system named is Ca-Ski. As to the kind of experiment: Induction of apoptosis in human CaSki cells assessed as viable cells at 12.5 uM after 48 hrs by Annexin V-FITC/PI double staining based flow cytometric analysis (reference value: 93%). It counts as functional. The conditions noted are these: read-out: Activity.
Assay [22] is described as follows: Inhibition of Human papillomavirus type 16 derived E6 gene expression in human CaSki cells assessed as fold change in expression at 12.5 uM measured after 48 hrs by RT-qPCR analysis relative to control. It counts as functional, Ca-Ski.
Assay [23] concerns Ca-Ski. As to the kind of experiment: Induction of apoptosis in human CaSki cells assessed as necrotic cells at 12.5 uM after 48 hrs by Annexin V-FITC/PI double staining based flow cytometric analysis (Rvb =0.075%). It counts as functional.
Assay [24] can be described thus: Inhibition of Human papillomavirus type 16 derived E6 gene expression in human CaSki cells assessed as fold change in expression at 50 uM measured after 48 hrs by RT-qPCR analysis relative to control. It counts as functional, Ca-Ski.

On to `CC(C)N1C(=O)/C(=C/c2ccc(F)cc2)CC1(C(=O)NC(C)(C)C)C(=O)c1ccc(Br)cc1` (stereo unspecified), for which the Activity result with Ca-Ski [1] was “Dose-dependent effect”.

Regarding `CCCCN1C(=O)/C(=C/c2ccc(F)cc2)CC1(C(=O)NC(C)(C)C)C(=O)c1ccc(Cl)cc1` (stereo unspecified), in the assay with Ca-Ski [1], the Activity entry was “Dose-dependent effect”.

As to `CC(C)N1C(=O)/C(=C/c2ccc(F)cc2)CC1(C(=O)NC(C)(C)C)C(=O)c1ccc(Cl)cc1` (stereo unspecified), the Activity with Ca-Ski [2] is 26.2%; with Ca-Ski [3], 41.2%; in the assay on Ca-Ski [7], 9.65%; in the assay with Ca-Ski [1], “Dose-dependent effect”; in the assay with Ca-Ski [9], 15.6%; in the assay with Ca-Ski [10], 0.217%. Further, the Activity with Ca-Ski [11] is 23.56%; with Ca-Ski [12], 0.105%; with Ca-Ski [13], 6.24%; with Ca-Ski [14] it was 15%; in the assay on Ca-Ski [16] it was “Dose-dependent effect”; in the assay on Ca-Ski [17], “Tde”. For the same compound, the Activity in the assay with Ca-Ski [18] was found to be 14.9%; in the assay on Ca-Ski [20], 8.2%; with Ca-Ski [23] it was 0.18%. For the same compound, the viability at 50 µM in the assay with Ca-Ski [4] was 58.5%. Moreover, the “fold change (FC)” value is given as 0.483 in assay [5]; 0.465 in [6]; 0.547 in [8]; 0.432 in assay [15]; 0.653 in assay [22]; 0.354 in [24]. For the same compound, the viability at 25 µM in the assay on Ca-Ski [19] amounted to 75.3%. The viability at 12.5 µM in the assay with Ca-Ski [21] came out at 85.4%.
